Assay results reported in PubChem BioAssay (NCI).
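How tested: cells in 96-well plates exposed to compound for 48 hours at five concentrations. TGI: total growth inhibition.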

Legend:
Assay in all cases: NCI tumour cell line growth inhibition, 48 h
[1] = test system: HL-60(TB) leukemia
[2] = test system: HOP-62 NSCLC
[3] = test system: OVCAR-5 ovarian
[4] = test system: EKVX NSCLC
[5] = test system: UACC-62 melanoma
[6] = test system: ACHN renal
[7] = test system: OVCAR-8 ovarian
[8] = test system: M14 melanoma
[9] = test system: SK-MEL-5 melanoma
[10] = test system: OVCAR-4 ovarian
[11] = test system: OVCAR-3 ovarian
[12] = test system: NCI-H226 lung
[13] = test system: MALME-3M melanoma
[14] = test system: SK-OV-3 ovarian
[15] = test system: SF-539 CNS
[16] = test system: 786-0 renal
[17] = test system: RXF 393 renal
[18] = test system: KM12 colon
[19] = test system: UACC-257 melanoma
[20] = test system: M19-MEL melanoma
[21] = test system: UO-31 renal
[22] = test system: COLO 205 colon
[23] = test system: CAKI-1 renal
[24] = test system: SK-MEL-28 melanoma
[25] = test system: SR leukemia
[26] = test system: A549 NSCLC
[27] = test system: LXFL 529 NSCLC
[28] = test system: LOX IMVI melanoma
[29] = test system: HCT-15 colon
[30] = test system: HCT-116 colon
[31] = test system: HT29 colon
[32] = test system: RXF-631 renal
[33] = test system: RPMI-8226 leukemia
[34] = test system: TK-10 renal
[35] = test system: SW-620 colon
[36] = test system: SNB-19 CNS
[37] = test system: NCI-H23 lung
[38] = test system: NCI-H522 lung
[39] = test system: IGROV1 ovarian
[40] = test system: HOP-92 NSCLC
[41] = test system: DMS 114 small cell lung
[42] = test system: K-562 leukemia
[43] = test system: SF-295 CNS
[44] = test system: DLD-1 colon
[45] = test system: SNB-75 CNS
[46] = test system: CCRF-CEM leukemia
[47] = test system: SK-MEL-2 melanoma
[48] = test system: KM20L2 colon
[49] = test system: DMS 273 small cell lung
[50] = test system: HCC-2998 colon
[51] = test system: SN12C renal
[52] = test system: MOLT-4 leukemia
[53] = test system: NCI-H460 lung
[54] = test system: SF-268 CNS
[55] = test system: A498 renal
[56] = test system: U251 CNS
[57] = test system: XF 498 CNS
[58] = test system: SNB-78 CNS
[59] = test system: HOP-18 NSCLC
[60] = test system: P388 leukemia
[61] = test system: SN12K1 renal
[62] = test system: P388/ADR leukemia

SMILES: CCN(CC)CCNc1ccc2nnn3c4ccccc4c(=O)c1c23
- TGI [1]: 8.59 µM
- TGI [2]: 15.8 µM
- TGI [3]: 14.4 µM
- TGI [4]: 19.4 µM
- TGI [5]: 20.4 µM
- TGI [6]: > 100 µM
- TGI [7]: 18.6 µM
- TGI [8]: 15.6 µM
- TGI [9]: 10.3 µM
- TGI [10]: 13.7 µM
- TGI [11]: 23.7 µM
- TGI [12]: 8.09 µM
- TGI [13]: 16.1 µM
- TGI [14]: 62.5 µM
- TGI [15]: 19.6 µM
- TGI [16]: 20.7 µM
- TGI [17]: 18.5 µM
- TGI [18]: 17.3 µM
- TGI [19]: 22.3 µM
- TGI [20]: 17.2 µM
- TGI [21]: 29.3 µM
- TGI [22]: 16.2 µM
- TGI [23]: > 33.7 µM
- TGI [24]: 16 µM
- TGI [25]: 5.44 µM
- TGI [26]: 13.2 µM
- TGI [27]: 21.8 µM
- TGI [28]: 12 µM
- TGI [29]: 26.2 µM
- TGI [30]: 35.2 µM
- TGI [31]: 14.2 µM
- TGI [32]: 13.7 µM
- TGI [33]: > 24.2 µM
- TGI [34]: 22.9 µM
- TGI [35]: 15.4 µM
- TGI [36]: 40.3 µM
- TGI [37]: 19.7 µM
- TGI [38]: 16.4 µM
- TGI [39]: 58.8 µM
- TGI [40]: 11.7 µM
- TGI [41]: 24.2 µM
- TGI [42]: 14.8 µM
- TGI [43]: 15.3 µM
- TGI [44]: 42.2 µM
- TGI [45]: 11.9 µM
- TGI [46]: 18.7 µM
- TGI [47]: 14 µM
- TGI [48]: 15.1 µM
- TGI [49]: 14.3 µM
- TGI [50]: 20.9 µM
- TGI [51]: 33.4 µM
- TGI [52]: 6.7 µM
- TGI [53]: 6.27 µM
- TGI [54]: 19.2 µM
- TGI [55]: 24.2 µM
- TGI [56]: 9.22 µM
- TGI [57]: 13.6 µM

SMILES: CCOC(=O)C1SC(=Nc2ccc(Cl)cc2C)N=C1C (configuration not stated)
- TGI [1]: 27.1 µM
- TGI [2]: 43.2 µM
- TGI [3]: 45.9 µM
- TGI [4]: 75.2 µM
- TGI [5]: 27.9 µM
- TGI [6]: 57.2 µM
- TGI [7]: > 100 µM
- TGI [8]: 35.3 µM
- TGI [9]: 29.9 µM
- TGI [10]: 56.2 µM
- TGI [11]: 48.2 µM
- TGI [12]: 63.5 µM
- TGI [13]: 39.2 µM
- TGI [15]: 34.5 µM
- TGI [16]: 32.6 µM
- TGI [17]: 35.8 µM
- TGI [18]: 35.1 µM
- TGI [19]: 51.9 µM
- TGI [20]: 43.7 µM
- TGI [21]: 39.9 µM
- TGI [22]: 31 µM
- TGI [23]: 79.9 µM
- TGI [24]: 73.5 µM
- TGI [26]: 86.2 µM
- TGI [27]: 45.6 µM
- TGI [28]: 28.2 µM
- TGI [29]: 37.1 µM
- TGI [30]: 28.4 µM
- TGI [31]: 30.3 µM
- TGI [32]: 71.4 µM
- TGI [34]: 65.2 µM
- TGI [35]: 53.7 µM
- TGI [58]: 76.7 µM
- TGI [36]: > 100 µM
- TGI [37]: 34.8 µM
- TGI [38]: 27 µM
- TGI [39]: 88 µM
- TGI [40]: 30 µM
- TGI [41]: 35.3 µM
- TGI [42]: 51.3 µM
- TGI [43]: 52.9 µM
- TGI [44]: 35.9 µM
- TGI [45]: 69.9 µM
- TGI [47]: 35.8 µM
- TGI [48]: 32.1 µM
- TGI [49]: 66.9 µM
- TGI [50]: 47.9 µM
- TGI [51]: 41.4 µM
- TGI [52]: 47.9 µM
- TGI [53]: 54.2 µM
- TGI [54]: 94.5 µM
- TGI [55]: 98.1 µM
- TGI [56]: 31.6 µM
- TGI [59]: > 100 µM
- TGI [57]: 40 µM

SMILES: CCC(C)C1NC(=O)CNC(=O)C2Cc3c([nH]c4cc(O)ccc34)S(=O)CC(NC(=O)CNC1=O)C(=O)NC(CC(=O)O)C(=O)N1CC(O)CC1C(=O)NC(C(C)C(O)CO)C(=O)N2 (configuration not stated)
- TGI [60]: 14.9 µM
- TGI [61]: > 100 µM
- TGI [12]: 8.08 µM
- TGI [19]: 6.73 µM
- TGI [20]: 24.2 µM
- TGI [58]: > 100 µM
- TGI [37]: 5.81 µM
- TGI [40]: 5.78 µM
- TGI [41]: 3.78 µM
- TGI [44]: > 100 µM
- TGI [62]: 18.4 µM
- TGI [48]: > 100 µM
- TGI [49]: 14.9 µM
- TGI [59]: > 88.9 µM
- TGI [57]: 5.88 µM
